Patent US8648116B2, “Derivatives of N-(arylamino) sulfonamides including polymorphs as inhibitors of MEK as well as compositions, methods of use and methods for preparing the same” (Ardea Biosciences, Inc., priority 2005, dated 2014)
Marks after values point to notes of the source that are not given here.

System: Colo205 tumor cells
Test: ED50 in Colo205 xenografts (Example 94D)
Type: in vivo, nu/nu mice
Source text: Male nu/nu mice were implanted with Colo205 tumor cells. After 10 days animals were randomized by tumor size (range 126-256 mm^3) and treated with paclitaxel (IV, QODx5), vehicle or Compound A (PO, QDx14).

COc1cc(F)c(F)c(Nc2ccc(I)cc2F)c1NS(=O)(=O)C1(C[C@H](O)CO)CC1 [Compound A]
% TGI (Compound A 2.5 mg/kg PO QDx14): 47* % | Day 15 Tumor Volume (Compound A 2.5 mg/kg PO QDx14): 1187 ± 127 mm^3 | % TGI (Compound A 5 mg/kg PO QDx14): 48* % | Day 15 Tumor Volume (Compound A 5 mg/kg PO QDx14): 1175 ± 104 mm^3 | % TGI (Compound A 10 mg/kg PO QDx14): 55* % | Day 15 Tumor Volume (Compound A 10 mg/kg PO QDx14): 1045 ± 160 mm^3 | % TGI (Compound A 25 mg/kg PO QDx14): 70* % | Day 15 Tumor Volume (Compound A 25 mg/kg PO QDx14): 762 ± 81 mm^3
